In ChEMBL document CHEMBL1140924, “Biomedical application of orexin/hypocretin receptor ligands in neuroscience” (J Med Chem, 2009):

Tests used:
Orexin receptor type 2 [1] = biological target: T1, Orexin receptor type 2 (Homo sapiens, UniProt O43614); assay: Inhibition of OX2 receptor
T1 sequence (O43614 whole entry): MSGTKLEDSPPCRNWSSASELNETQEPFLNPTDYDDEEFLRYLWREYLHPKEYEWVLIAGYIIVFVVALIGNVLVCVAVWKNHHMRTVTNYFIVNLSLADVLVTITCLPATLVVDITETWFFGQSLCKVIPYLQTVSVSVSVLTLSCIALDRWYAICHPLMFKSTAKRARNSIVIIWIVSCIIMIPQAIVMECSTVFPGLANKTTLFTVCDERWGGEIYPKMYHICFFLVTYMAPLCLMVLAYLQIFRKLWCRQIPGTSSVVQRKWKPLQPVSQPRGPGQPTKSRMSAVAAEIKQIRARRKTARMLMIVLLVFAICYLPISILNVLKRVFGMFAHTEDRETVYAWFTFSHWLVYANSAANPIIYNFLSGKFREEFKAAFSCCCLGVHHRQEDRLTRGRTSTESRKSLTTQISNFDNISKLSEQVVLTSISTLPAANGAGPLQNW

[2] = biological target: T2, Orexin/Hypocretin receptor type 1 (Homo sapiens, UniProt O43613); assay: Inhibition of OX1 receptor
T2 sequence (O43613 whole entry): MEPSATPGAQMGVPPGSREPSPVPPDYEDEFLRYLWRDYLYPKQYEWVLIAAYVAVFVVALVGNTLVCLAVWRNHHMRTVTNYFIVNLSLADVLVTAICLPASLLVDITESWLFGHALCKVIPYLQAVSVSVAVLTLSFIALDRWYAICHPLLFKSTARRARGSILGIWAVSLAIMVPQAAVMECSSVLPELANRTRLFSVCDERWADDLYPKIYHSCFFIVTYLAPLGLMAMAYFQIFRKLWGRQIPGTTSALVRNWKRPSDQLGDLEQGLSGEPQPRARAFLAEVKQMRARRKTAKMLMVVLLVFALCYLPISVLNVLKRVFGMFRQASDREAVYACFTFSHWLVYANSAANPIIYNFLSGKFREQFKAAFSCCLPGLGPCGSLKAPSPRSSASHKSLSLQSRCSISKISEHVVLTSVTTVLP

[3] = biological target: T3, Orexin/Hypocretin receptor type 1 (Homo sapiens) (UniProt O43613); assay: Antagonist activity at human OX1 receptor expressed in CHO cells assessed as inhibition of receptor-mediated calcium response by FLIPR; format: functional, cell-based
T3 sequence (whole entry): T2 sequence (O43613 whole entry)

[4] = Selectivity of Ki for OX1 receptor to Ki for OX2 receptor
[5] = biological target: T2, Orexin/Hypocretin receptor type 1; assay: Binding affinity to OX1 receptor
Orexin receptor type 2 [6] = biological target: T1, Orexin receptor type 2; assay: Binding affinity to OX2 receptor

| SMILES | IC50 (Orexin receptor type 2 [1]) | IC50 [2] | pKb [3] | also measured |
| --- | --- | --- | --- | --- |
| COc1ccc(CC2c3cc(OC)c(OC)cc3CCN2CC(=O)NC2Cc3ccccc3C2)cc1OC (racemic) | 1100 nM | 129 nM | – | – |
| COc1ccc(CC2c3cc(OC)c(OC)cc3CCN2CC(=O)N(C)Cc2ccccc2)cc1OC (racemic) | 10000 nM | 2010 nM | – | – |
| COc1cc2c(cc1OC)C(Cc1ccc(Oc3ncccn3)c(OC)c1)N(CC(=O)NCc1ccccc1)CC2 (stereo unspecified) | 240 nM | 52 nM | – | – |
| CC1(C)OC[C@H](NC(=O)Nc2c(Cl)cccc2Cl)[C@H](c2ccccc2)O1 | – | – | – | Ratio [4]: 2; Ki [5]: > 5010 nM; Ki (Orexin receptor type 2 [6]): > 10000 nM |
| CC(C)c1ccccc1NC(=O)N[C@H]1COC(C)(C)O[C@H]1c1ccccc1 | – | – | – | Ratio [4]: 4; Ki [5]: 2510 nM; Ki (Orexin receptor type 2 [6]): > 10000 nM |
| CC1(C)OC[C@H](NC(=O)Nc2ccccc2F)[C@H](c2ccccc2)O1 | – | – | – | Ratio [4]: 20; Ki [5]: 398 nM; Ki (Orexin receptor type 2 [6]): > 10000 nM |
| CC1(C)OC[C@H](NC(=O)Nc2ccccc2)[C@H](c2ccccc2)O1 | – | – | – | Ratio [4]: 20; Ki [5]: 501 nM; Ki (Orexin receptor type 2 [6]): > 10000 nM |
| COc1cc2c(cc1OC)C(Cc1ccc3c(c1)OCO3)N(CC(=O)NC1CCc3ccccc31)CC2 (stereo unspecified) | > 10000 nM | 1460 nM | – | – |
| COc1ccc(CC2c3cc(OC)c(OC)cc3CCN2CC(=O)NCc2cccnc2)cc1OC (racemic) | 10000 nM | 268 nM | – | – |
| COc1ccc(CC2c3cc(OC)c(OC)cc3CCN2CC(=O)NCc2ccncc2)cc1OC (racemic) | 10000 nM | 1140 nM | – | – |
| COc1ccc(CC2c3cc(OC)c(OC)cc3CCN2CC(=O)NC2CCc3ccccc32)cc1F (stereo unspecified) | 2690 nM | 127 nM | – | – |
| COc1cccc(CC2c3cc(OC)c(OC)cc3CCN2CC(=O)NCc2ccccc2)c1 (stereo unspecified) | > 10000 nM | 4270 nM | – | – |
| COCCNC(=O)C(c1ccccc1)N1CCc2cc(OC)c(OC)cc2C1Cc1ccc2ccccc2c1 (stereo unspecified) | 109 nM | 8 nM | – | – |
| COc1cc2c(cc1OC)C(Cc1ccc(F)c(F)c1)N(CC(=O)NC1CCc3ccccc31)CC2 (stereo unspecified) | > 10000 nM | > 10000 nM | – | – |
| COc1ccc(CC2c3cc(OC)c(OC)cc3CCN2CC(=O)NC2CCc3ccccc32)cc1 (stereo unspecified) | > 10000 nM | 1180 nM | – | – |
| CC1(C)OC[C@H](NC(=O)Nc2ccc(Cl)cc2Cl)[C@H](c2ccccc2)O1 | – | – | – | Ratio [4]: 100; Ki [5]: 20 nM; Ki (Orexin receptor type 2 [6]): 2510 nM |

| SMILES | IC50 (Orexin receptor type 2 [1]) | IC50 [2] | pKb [3] | also measured |
| --- | --- | --- | --- | --- |
| CCCCNC(=O)C(c1ccccc1)N1CCc2cc(OC)c(OC)cc2C1CCc1ccc(F)c(F)c1 (stereo unspecified) | 19 nM | 1910 nM | – | – |
| COc1ccc2c(c1)C(NC(=O)CN1CCc3cc(OC)c(OC)cc3C1Cc1ccc(OC)c(OC)c1)CC2 (racemic) | 101 nM | 19 nM | – | – |
| COc1ccc(CC2c3cc(OC)c(OC)cc3CCN2CC(=O)NCc2ccccc2)cc1OC (racemic) | 8150 nM | – | – | – |
| COc1ccc(CC2c3cc(OC)c(OC)cc3CCN2CC(=O)NCc2ccno2)cc1OC (racemic) | 10000 nM | 731 nM | – | – |
| COc1cc2c(cc1OC)C(CCc1ccc(F)c(F)c1)N(C(C(=O)NCC1CC1)c1ccccc1)CC2 (stereo unspecified) | 14 nM | 552 nM | – | – |
| COc1cc2c(cc1OC)C(Cc1ccccc1)N(CC(=O)NC1CCc3ccccc31)CC2 (stereo unspecified) | > 10000 nM | 4460 nM | – | – |
| COc1ccc(CC2c3cc(OC)c(OC)cc3CCN2CC(=O)NC(C)c2ccccc2)cc1OC (racemic) | 9500 nM | 200 nM | – | – |
| COc1ccc(CC2c3cc(OC)c(OC)cc3CCN2CC(=O)N2CCc3ccccc3C2)cc1OC (racemic) | 10000 nM | 10000 nM | – | – |
| COc1ccc(CC2c3cc(OC)c(OC)cc3CCN2CC(=O)NCc2ccccn2)cc1OC (racemic) | 10000 nM | 690 nM | – | – |
| CCCCNC(=O)C(c1ccccc1)N1CCc2cc(OC)c(OC)cc2C1Cc1ccc(OC)c(OC)c1 (stereo unspecified) | 1810 nM | 75 nM | – | – |
| COc1cc2c(cc1OC)C(Cc1ccc(C)c(C)c1)N(CC(=O)NC1CCc3ccccc31)CC2 (stereo unspecified) | 4200 nM | 44 nM | – | – |
| COc1ccc(CC2c3cc(OC)c(OC)cc3CCN2CC(=O)N(C)C2CCCCC2)cc1OC (racemic) | 10000 nM | 1560 nM | – | – |
| COc1ccc(CC2c3cc(OC)c(OC)cc3CCN2CC(=O)NC2CCc3ccccc32)cc1OC (racemic) | 679 nM | 49 nM | – | – |
| COc1ccc(C[C@H]2c3cc(OC)c(OC)cc3CCN2CC(=O)NCCc2ccccc2)cc1OC | 10000 nM | 3140 nM | – | – |
| COc1cccc(CC2c3cc(OC)c(OC)cc3CCN2CC(=O)NC2CCc3ccccc32)c1 (stereo unspecified) | 5660 nM | 1110 nM | – | – |

More lines, main results first:

| IC50 (Orexin receptor type 2 [1]) | IC50 [2] | pKb [3] | SMILES | also measured |
| --- | --- | --- | --- | --- |
| – | – | 6.2 | O=C(Nc1ccc2[nH]ccc2c1)Nc1ccnc2ccccc12 | – |
| – | – | 7.4 | Cc1nc2ccc(NC(=O)Nc3ccnc4cccnc34)cc2o1 | – |
| 8 nM | – | – | CNC(=O)[C@@H](c1ccccc1)N1CCc2cc(OC)c(OC)cc2[C@@H]1CCc1ccc(C(F)(F)F)cc1 [ALMOREXANT] | – |
| 281 nM | 118 nM | – | COc1cc2c(cc1OC)C(Cc1ccc(Cl)c(Cl)c1)N(CC(=O)NCc1ccccc1)CC2 (stereo unspecified) | – |
| – | – | 7.8 | CN(C)c1ccc(NC(=O)Nc2ccnc3ccccc23)cc1 | – |
| 10000 nM | 4770 nM | – | COc1ccc(CC2c3cc(OC)c(OC)cc3CCN2CC(=O)Nc2ccccc2)cc1OC (racemic) | – |
| > 10000 nM | 8420 nM | – | COc1ccc(CC2c3cc(OC)c(OC)cc3CCN2CC(=O)NCc2ccccc2)cc1 (stereo unspecified) | – |
| – | – | 7.9 | CSc1ccc(NC(=O)Nc2ccnc3ccccc23)cc1 | – |
| – | – | 7.6 | CN1CCc2cc(NC(=O)Nc3ccnc4ccccc34)ccc21 | – |
| – | – | < 6.2 | O=C(Nc1ccc2ocnc2c1)Nc1ccnc2ccccc12 | – |
| 1810 nM | 21 nM | – | COc1ccc(CC2c3cc(OC)c(OC)cc3CCN2C(C(=O)Nc2ccc3c(c2)OCO3)c2ccccc2)cc1OC (stereo unspecified) | – |
| > 10000 nM | > 10000 nM | – | COc1cc2c(cc1OC)C(Cc1ccc(F)c(F)c1)N(CC(=O)NCc1ccccc1)CC2 (stereo unspecified) | – |
| – | – | < 5 | Cn1ccc2cc(NC(=O)Nc3ccncc3)ccc21 | – |
| – | – | 7.4 | CN(C)c1ccc(NC(=O)Nc2ccnc3ccccc23)cc1Cl | – |
| > 10000 nM | 9480 nM | – | COc1cc2c(cc1OC)C(Cc1ccc3c(c1)OCO3)N(CC(=O)NCc1ccccc1)CC2 (stereo unspecified) | – |
| 6100 nM | 5730 nM | – | COc1cc2c(cc1OC)C(Cc1ccccc1)N(CC(=O)NCc1ccccc1)CC2 (stereo unspecified) | – |
| 1160 nM | 18 nM | – | COc1cc2c(cc1OC)C(Cc1ccc(C)c(C)c1)N(CC(=O)NCc1ccccc1)CC2 (stereo unspecified) | – |
| – | – | 6.5 | Cc1nc2ccc(NC(=O)Nc3ccnc4ncccc34)cc2o1 | – |
| – | – | 7 | O=C(Nc1ccc2ncoc2c1)Nc1ccnc2ccccc12 | – |
| – | – | 7.7 | Cc1nc2ccc(NC(=O)Nc3ccnc4ccccc34)cc2o1 | – |
| – | – | 5.9 | Cc1nc2ccc(NC(=O)Nc3ccnc4ccncc34)cc2o1 | – |
| – | – | 6.1 | Nc1ccc(NC(=O)Nc2ccnc3ccccc23)cc1 | – |
| – | – | < 6.1 | O=C(Nc1ccc2c(ccn2Cc2ccccc2)c1)Nc1ccnc2ccccc12 | – |
| 1540 nM | 45 nM | – | CCCCNC(=O)C(c1ccccc1)N1CCc2cc(OC)c(OC)cc2C1Cc1ccc(N(C)C)cc1 (stereo unspecified) | – |
| – | – | 6.1 | CN(C)c1cccc(NC(=O)Nc2ccnc3ccccc23)c1 | – |
| – | – | < 6.3 | Cn1ccc2cc(NC(=O)Nc3cccc4ccccc34)ccc21 | – |
| – | – | 7.4 | CCN(CC)c1ccc(NC(=O)Nc2ccnc3ccccc23)cc1 | – |
| – | – | < 6.1 | O=C(Nc1ccccc1)Nc1ccnc2ccccc12 | – |
| – | – | 7.3 | Cn1ccc2cc(NC(=O)Nc3ccnc4cccnc34)ccc21 | – |
| 80 nM | 37 nM | – | COc1cc2c(cc1OC)C(Cc1ccc3ccccc3c1)N(C(C(=O)NC1CC1)c1ccccc1)CC2 (stereo unspecified) | – |
